Data as given in PMC7817688, “Identification of 3-chymotrypsin like protease (3CLPro) inhibitors as potential anti-SARS-CoV-2 agents” (Communications Biology, 2021).
“And” between values parts separate entries of the source, which are not always exact repeats. Equal values may be shown once. Read-outs that look alike come from different tables or passages of the source.

Molecular target: SARS-CoV-2 3CLpro enzyme (Severe acute respiratory syndrome coronavirus 2, UniProt P0DTD1)
Assay: biochemical
Details: for percent enzymatic activity, individual values / percent enzymatic activity, AVG: DMSO treated control = 100%, data of Figs. 2-4; for percent enzymatic activity, AVG: mean of 3 values; for inhibitory effect towards 3CLpro enzymatic activity (in words): in vitro enzymatic assay at the tested doses; for IC50: drugs 0 to 100 µM, 50 µM substrate, non-linear four variable fit; for inhibition at 50 µM / inhibition at 100 µM: read-out: inhibition of 3CLpro enzymatic activity
[1] = dose-dependent study, 0.097656 uM, individual values
[2] = dose-dependent study, 0.195313 uM, individual values
[3] = dose-dependent study, 0.390625 uM, individual values
[4] = dose-dependent study, 0.78125 uM, individual values
[5] = dose-dependent study, 1.5625 uM, individual values
[6] = dose-dependent study, 3.125 uM, individual values
[7] = dose-dependent study, 6.25 uM, individual values
[8] = dose-dependent study, 12.5 uM, individual values
[9] = dose-dependent study, 25 uM, individual values
[10] = dose-dependent study, 50 uM, individual values
[11] = dose-dependent study, 100 uM, individual values
[12] = dose-dependent study, 0.048828 uM, individual values
[13] = dose-dependent study, 0.097656 uM, individual values, read-out: % activity
[14] = dose-dependent study, 0.390625 uM, individual values, read-out: % activity
[15] = dose-dependent study, 0.78125 uM, individual values, read-out: % activity
[16] = dose-dependent study, 3.125 uM, individual values, read-out: % activity
[17] = dose-dependent study, 12.5 uM, individual values, read-out: % activity

CCOC(=O)c1ccc(OC(=O)CCCCCNC(=N)N)cc1 [Gabexate]
percent enzymatic activity, individual values (50 µM drug): 88.0184% and 104.147% and 90.7834% | percent enzymatic activity, AVG (50 µM drug): 94.3164%

Cc1cccc(C)c1OCC(=O)N[C@@H](Cc1ccccc1)[C@@H](O)C[C@H](Cc1ccccc1)NC(=O)[C@H](C(C)C)N1CCCNC1=O [Lopinavir]
percent enzymatic activity, individual values (50 µM drug): 75.576% and 76.4977% and 84.3318% | percent enzymatic activity, AVG (50 µM drug): 78.8018% | inhibitory effect towards 3CLpro enzymatic activity (in words): did not exhibit any 3CLpro inhibitory activity

CCC(CC)COC(=O)[C@H](C)N[P@](=O)(OC[C@H]1O[C@@](C#N)(c2ccc3c(N)ncnn23)[C@H](O)[C@@H]1O)Oc1ccccc1 [Remdesivir]
percent enzymatic activity, individual values (50 µM drug): 83.5766% and 41.9708% and 50.7299% | percent enzymatic activity, AVG (50 µM drug): 58.7591%

CC(C)(C)[C@@H]1NC(=O)O[C@@H]2CCC[C@H]2OC/C=C/C(F)(F)c2nc3ccccc3nc2O[C@@H]2C[C@@H](C(=O)N[C@]3(C(=O)NS(=O)(=O)C4(C)CC4)C[C@H]3C(F)F)N(C2)C1=O [Glecaprevir]
percent enzymatic activity, individual values (50 µM drug): 92.7616% and 89.3077% and 94.7353% | percent enzymatic activity, AVG (50 µM drug): 92.2682%

COc1cc2c(cc1Cc1cccc(Cl)c1F)c(=O)c(C(=O)O)cn2[C@H](CO)C(C)C [Elvitegravir]
percent enzymatic activity, individual values (50 µM drug): 78.3509% and 80.4458% and 91.3395% | percent enzymatic activity, AVG (50 µM drug): 83.3787%

CO[C@@H]1[C@H](OC(=O)/C=C/C=C/C=C/C=C/C(=O)O)CC[C@]2(CO2)[C@H]1[C@@]1(C)O[C@@H]1CC=C(C)C [Fumagillin]
percent enzymatic activity, individual values (50 µM drug): 70.8091% and 76.2559% and 71.647% | percent enzymatic activity, AVG (50 µM drug): 72.904%

COC(=O)N[C@H](C(=O)N1CCC[C@H]1C(=O)Nc1ccc([C@@H]2CC[C@@H](c3ccc(NC(=O)[C@@H]4CCCN4C(=O)[C@@H](NC(=O)OC)C(C)C)cc3)N2c2ccc(C(C)(C)C)cc2)cc1)C(C)C [Ombitasvir]
percent enzymatic activity, individual values (50 µM drug): 28.8321% and 35.4015% and 42.7007% | percent enzymatic activity, AVG (50 µM drug): 35.6448% | IC50 (IC50 for SARS-CoV-2 3CL protease): 75.5 µM | % activity [1]: 102.678% and 100.823% | activity at 0.097656 µM [1]: 106% | % activity [2]: 97.7299% and 97.8652% | activity at 0.195313 µM [2]: 106% | % activity [3]: 102.06% and 103.288% | activity at 0.390625 µM [3]: 112% | % activity [4]: 107.008% and 95.4001% | activity at 0.78125 µM [4]: 113% | % activity [5]: 102.06% and 100.823% | activity at 1.5625 µM [5]: 111% | % activity [6]: 111.957% and 103.781% | activity at 3.125 µM [6]: 113% | % activity [7]: 105.153% and 107.726% | activity at 6.25 µM [7]: 115% | % activity [8]: 107.627% and 104.767% | activity at 12.5 µM [8]: 112% | % activity [9]: 102.302% and 73.6067% and 103.288% | % activity [10]: 98.3582% and 67.4213% and 91.9489% | % activity [11]: 61.2358% and 60.8884% | activity at 100 µM [11]: 64.3% | inhibitory effect towards 3CLpro enzymatic activity (in words): partial inhibitory effect | inhibition at 50 µM: 65% | inhibition at 100 µM: 50%

Cc1c(O)cccc1C(=O)N[C@@H](CSc1ccccc1)[C@H](O)CN1C[C@H]2CCCC[C@H]2C[C@H]1C(=O)NC(C)(C)C [Nelfinavir]
percent enzymatic activity, individual values (50 µM drug, listed as Nilfinavir): 69.1244% and 72.3502% and 70.0461% | percent enzymatic activity, AVG (50 µM drug): 70.5069%

CCOC(=O)c1c(CSc2ccccc2)n(C)c2cc(Br)c(O)c(CN(C)C)c12 [Umifenovir]
percent enzymatic activity, individual values (50 µM drug): 80.6569% and 86.8613% and 87.2263% | percent enzymatic activity, AVG (50 µM drug): 84.9148%

CC(C)c1nc(CN(C)C(=O)N[C@H](C(=O)N[C@@H](Cc2ccccc2)C[C@H](O)[C@H](Cc2ccccc2)NC(=O)OCc2cncs2)C(C)C)cs1 [Ritonavir]
percent enzymatic activity, individual values (50 µM drug): 82.0276% and 87.5576% and 91.2442% | percent enzymatic activity, AVG (50 µM drug): 86.9432% | inhibitory effect towards 3CLpro enzymatic activity (in words): did not exhibit any 3CLpro inhibitory activity

Nc1nc(NC2CC2)c2ncn([C@H]3C=C[C@@H](CO)C3)c2n1 [Abacavir]
percent enzymatic activity, individual values (50 µM drug): 85.8927% and 88.8256% and 90.5015% (2×) | percent enzymatic activity, AVG (50 µM drug): 88.4066%

Candicidin
percent enzymatic activity, individual values (50 µM drug): 86.2745% and 80.3922% and 82.3529% | percent enzymatic activity, AVG (50 µM drug): 83.0065%

Cc1cc(CCCOc2c(C)cc(-c3noc(C(F)(F)F)n3)cc2C)on1 [Pleconaril]
percent enzymatic activity, individual values (50 µM drug): 89.2446% and 86.7306% and 85.4737% | percent enzymatic activity, AVG (50 µM drug): 87.1496%

Cc1cc(C#N)cc(C)c1Oc1nc(Nc2ccc(C#N)cc2)nc(N)c1Br [Etravirine]
percent enzymatic activity, individual values (50 µM drug): 85.8927% and 97.6243% and 93.0155% | percent enzymatic activity, AVG (50 µM drug): 92.1775%

CCN(CC)CCCC(C)Nc1ccnc2cc(Cl)ccc12 (stereo not shown) [Chloroquine]
percent enzymatic activity, individual values (50 µM drug, listed as Chloroquine Phosphate): 103.986% and 93.4637% and 103.367% | percent enzymatic activity, AVG (50 µM drug): 100.272%

CC(C)(C)NC(=O)N[C@H](C(=O)N1C[C@H]2[C@@H]([C@H]1C(=O)NC(CC1CCC1)C(=O)C(N)=O)C2(C)C)C(C)(C)C (stereo partly shown) [Boceprevir]
percent enzymatic activity, individual values (50 µM drug): 54.8875% and 56.5635% and 59.0774% | percent enzymatic activity, AVG (50 µM drug): 56.8428% | % activity [12]: 71.4825% | activity at 0.048828 µM [12]: 72.9% | % activity [1]: 78.9417% and 76.1445% | activity at 0.097656 µM [13]: 75.2% | % activity [2]: 74.7459% | activity at 0.195313 µM (dose-dependent study, 0.195313 uM, individual values, read-out: % activity): 73.3% | % activity [3]: 72.4149% | activity at 0.390625 µM [14]: 77.1% | % activity [4]: 70.5501% and 71.9487% | activity at 0.78125 µM [15]: 71% | % activity [5]: 78.9417% and 72.4149% | activity at 1.5625 µM (dose-dependent study, 1.5625 uM, individual values, read-out: % activity): 74.3% | % activity [6]: 84.5361% | activity at 3.125 µM [16]: 73.3% | activity at 6.25 µM (dose-dependent study, 6.25 uM, individual values, read-out: % activity): 73.8% | % activity [8]: 70.0839% and 64.9557% | activity at 12.5 µM [17]: 61.2% | % activity [9]: 57.4965% and 56.0979% | activity at 25 µM [9]: 51.9% | % activity [10]: 41.6457% and 41.1795% | activity at 50 µM [10]: 37.4% | % activity [11]: 29.5245% and 31.8555% | activity at 100 µM (dose-dependent study, 100 uM, individual values, read-out: % activity): 26.7% | inhibitory effect towards 3CLpro enzymatic activity (in words): partial inhibitory effect | inhibition at 50 µM (50 µM drug): 45%

CN(C)C(=O)COC(=O)Cc1ccc(OC(=O)c2ccc(NC(=N)N)cc2)cc1 [Camostat]
percent enzymatic activity, individual values (50 µM drug): 94.4701% and 101.843% and 102.304% | percent enzymatic activity, AVG (50 µM drug): 99.5392%

COC(=O)N[C@H](C(=O)N1CCC[C@H]1c1nc2cc([C@H]3CC[C@H](c4cc5nc([C@@H]6CCCN6C(=O)[C@@H](NC(=O)OC)[C@@H](C)OC)[nH]c5cc4F)N3c3cc(F)c(N4CCC(c5ccc(F)cc5)CC4)c(F)c3)c(F)cc2[nH]1)[C@@H](C)OC [Pibrentasvir]
percent enzymatic activity, individual values (50 µM drug): 62.0438% and 66.4234% and 69.3431% | percent enzymatic activity, AVG (50 µM drug): 65.9367%

COC(=O)N[C@H](C(=O)N[C@@H](Cc1ccccc1)[C@@H](O)CN(Cc1ccc(-c2ccccn2)cc1)NC(=O)[C@@H](NC(=O)OC)C(C)(C)C)C(C)(C)C [Atazanavir]
percent enzymatic activity, individual values (50 µM drug): 84.3318% and 88.0184% and 91.2442% | percent enzymatic activity, AVG (50 µM drug): 87.8648%

CC(C)Nc1cccnc1N1CCN(C(=O)c2cc3cc(NS(C)(=O)=O)ccc3[nH]2)CC1 [Delavirdine (mesylate), Delavirdine]
percent enzymatic activity, individual values (50 µM drug): 93.4344% and 97.6243% and 104.328% | percent enzymatic activity, AVG (50 µM drug): 98.4623%

CC(C)OC(=O)[C@H](C)N[P@](=O)(OC[C@H]1O[C@@H](n2ccc(=O)[nH]c2=O)[C@](C)(F)[C@@H]1O)Oc1ccccc1 [Sofosbuvir]
percent enzymatic activity, individual values (50 µM drug): 76.4977% and 78.341% and 81.5668% | percent enzymatic activity, AVG (50 µM drug): 78.8018%

CCC[C@H](NC(=O)[C@@H]1[C@H]2CCC[C@H]2CN1C(=O)[C@@H](NC(=O)[C@@H](NC(=O)c1cnccn1)C1CCCCC1)C(C)(C)C)C(=O)C(=O)NC1CC1 [Telaprevir]
percent enzymatic activity, individual values (50 µM drug): 64.9635% and 42.7007% and 84.6715% | percent enzymatic activity, AVG (50 µM drug): 64.1119%

CCC[C@@]1(CCc2ccccc2)CC(O)=C([C@H](CC)c2cccc(NS(=O)(=O)c3ccc(C(F)(F)F)cn3)c2)C(=O)O1 [Tipranavir]
percent enzymatic activity, individual values (50 µM drug): 30.4148% and 38.7097% and 37.3272% | percent enzymatic activity, AVG (50 µM drug): 35.4839% | % activity [1]: 82.4284% (2×) and 99.6504% | activity at 0.097656 µM [13]: 101% | % activity [2]: 93.9114% and 73.379% and 92.2647% and 99.6504% | % activity [3]: 86.3629% and 90.6909% and 88.1724% | activity at 0.390625 µM [14]: 104% | % activity [4]: 90.2974% and 88.7236% and 98.607% | activity at 0.78125 µM [15]: 109% | % activity [5]: 116.346% and 88.7236% and 94.6254% | % activity [6]: 93.8385% and 93.4451% and 104.346% | activity at 3.125 µM [16]: 110% | % activity [7]: 117.389% and 86.7564% and 86.3629% | % activity [8]: 89.5105% and 88.3302% and 98.0853% | activity at 12.5 µM [17]: 107% | % activity [9]: 75.6509% and 84.3957% and 93.4451% and 63.6511% | % activity [10]: 69.8379% and 61.9688% and 53.2165% | activity at 50 µM [10]: 57.4% | % activity [11]: 47.9992% and 60.395% and 69.8379% and 42.7819% | IC50 (read-out: IC50 for SARS-CoV-2 3CL protease): 27.7 µM | inhibitory effect towards 3CLpro enzymatic activity (in words): partial inhibitory effect | inhibition at 50 µM (50 µM drug): 64% | inhibition at 100 µM (100 µM drug): 50%
